Counter-ions that a name gives are not always drawn. Like-named read-outs stand apart in the source and are kept apart here.
Assays:
[1] = target: human P5C reductase; settings: cited from earlier work
[2] = target: T1, human P5C reductase 1 (PYCR1) (Homo sapiens, UniProt P32322); assay: P5C reductase assay (P5C-dependent oxidation of NAD(P)H); type: biochemical; settings: for effect on the activity of human P5C reductase: at concentrations as low as 1 μM
T1 construct: His-tag; made in house; host or cells: E. coli BL21(DE3) pLysS
T1 sequence (P32322 1-319): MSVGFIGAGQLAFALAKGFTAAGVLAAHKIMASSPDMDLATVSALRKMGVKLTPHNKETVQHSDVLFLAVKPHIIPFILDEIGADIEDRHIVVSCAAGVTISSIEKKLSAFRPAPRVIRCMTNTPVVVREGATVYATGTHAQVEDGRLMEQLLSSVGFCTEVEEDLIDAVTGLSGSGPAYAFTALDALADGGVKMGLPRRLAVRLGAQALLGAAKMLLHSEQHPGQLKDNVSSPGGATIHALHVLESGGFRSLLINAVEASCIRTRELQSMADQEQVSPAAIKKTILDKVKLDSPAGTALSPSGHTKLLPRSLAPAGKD
Method: The gene coding for P5C reductase 1 (PYCR1, gene ID 5831), cloned into the expression vector pET28a^+[34], was kindly provided by prof. Zihe Rao (Tsinghua University, China). For heterologous expression, E. coli BL21(DE3) pLysS cells (Invitrogen) were made competent by the calcium chloride method, transformed with the recombinant vector and selected on kanamycin-containing LB plates. About 6 h after inducing gene expression in liquid LB medium at 24 °C by the addition of 1 mM isopropyl-D-thiogalactopyranoside, cells were harvested by centrifugation and stored at −20 °C. Aliquots (about 1 g cell material) were lysed in an ice-cold mortar with 2 g g^−1 alumina and resuspended in 20 mL g^−1 extraction buffer (50 mM Na phosphate buffer, pH 7.5, containing 200 mM NaCl and 20 mM imidazole). The His-tagged protein was purified from clarified extracts by affinity chromatography onto a His-Trap^TM FF column (1 mL, GE Healthcare 17–5319-01). Stepwise elution was achieved by increasing concentrations of imidazole in extraction buffer. Discontinuous SDS–polyacrylamide gel electrophoresis was performed at 8 mA with a 5% stacking and a 12% separating gel, using a Minigel system (BioRad). Samples were mixed with the same volume of 125 mM Tris–HCl buffer (pH 6.8) containing 4% (w/v) SDS, 20% (v/v) glycerol and 10% (v/v) β-mercaptoethanol, and denatured 5 min at 100 °C. Proteins were visualised by soaking gels in Quick Coomassie Stain (CliniSciences) overnight.
Enzyme activity was measured at 30 °C as the P5C-dependent oxidation of NAD(P)H. Assays were performed in 96-microwell plates in a final volume of 0.2 mL. The assay mixture contained 4 mM DL-P5C and 0.5 mM of either NADH or NADPH in 50 mM Tris-HCl buffer, pH 7.5. Parallel blanks were performed in which P5C had been omitted. The decrease of absorbance was measured for 5 min at 0.5-min intervals using a Ledetect plate reader (Labexim, Lengau, Austria) equipped with a LED plugin at 340 nm. Residual NAD(P)H content was estimated on the basis of calibration curves obtained under the same conditions. Activity was calculated by linear regression of data using Prism 6 for Windows, version 6.03 (GraphPad Software, San Diego, CA); one unit of activity was defined as the amount of enzyme that catalyses the P5C-dependent oxidation of 1 nmol NAD(P)H s^−1 (nkat). Proteins were measured by the Coomassie Brilliant Blue method, using bovine serum albumin as the standard. To evaluate substrate affinity, invariable substrates were fixed at the same levels as in the standard assay. For variable substrates, L-P5C ranged from 400 to 2000 μM, while the concentration of NADH and NADPH ranged from 125 to 500 μM. To evaluate the inhibition brought about by pargylines and aminomethylene-bisphosphonates, freshly prepared 10 mM stock solution in water and 100 mM Tris-HCl buffer pH 7.5, respectively, were diluted with water and added to the reaction mixture before enzyme addition. Parallel control samples were carried out in the absence of any inhibitor. Activity was calculated as described above. Mean activity value in controls was set as 100%, and activity in treated samples was expressed as percent of such value. Percent values were plotted against the logarithm of inhibitor concentration, and data were interpolated using the equation Y = 100/(1 + 10^∧((LogIC50-X)*HillSlope)). Assays were performed in triplicate (technical replications). Each experiment was repeated at least twice with different enzyme preparations (biological replicates). KM and Vmax values, as well as the concentrations causing 50% inhibition (IC50), KI values and their confidence intervals were estimated by non-linear regression analysis using Prism 6.

[3] = target: glutamine synthetase; settings: human enzyme; cited from earlier work
[4] = tested on: human epithelial breast cancer MDA-MB-231 cells; assay: Antiproliferative assay, MDA-MB-231 cells; type: cell-based
Method: (§1) Human myelogenous erythroleukemic K562 cells[36] were cultured in a humidified atmosphere of 5% CO2/air either in complete RPMI 1640 medium (Lonza, Verviers, Belgium) or in a modified medium without L-proline (United States Biological, Massachusetts, USA), both supplemented with 10% foetal bovine serum (FBS; Biowest, Nuaillé, France), 100 U mL^−1 penicillin and 100 μg mL^−1 streptomycin. Human epithelial breast cancer MDA-MB-231 cells[37] were cultured under the same conditions in DMEM medium (Lonza, Verviers, Belgium) supplemented with 10% FBS, 100 U mL^−1 penicillin, 100 μg mL^−1 streptomycin and 2 mM L-glutamine.
K562 cells in the late exponential phase of growth were seeded in 1 mL medium without FBS in 24-well plates to an initial density of about 20,000 cells mL^−1. Treatments with Br2PAMBPA in the range 1–200 µM were carried out 5 h after seeding. Cell growth was monitored at increasing time after the treatment by determining cell density on 50-μL aliquots with a Z1 Coulter Counter (Coulter Electronics), considering a dimensional range between 8 and 20 μm. MDA-MB-231 cells in the late exponential phase of growth (90% confluence) were washed with sterile PBS, incubated with sterile trypsin-EDTA solution (Sigma-Aldrich, Saint Louis, USA) for 2 min, resuspended in fresh DMEM medium and centrifuged at 1000 g at room temperature for 5 min. Pellets were resuspended in sterile PBS and spun again to remove any residue of trypsin. […] Treatments with Br2PAMBPA in the range 1–200 µM were carried out 5 h after seeding, and 2% FBS was added to each well 24 h thereafter. Cell growth was monitored at increasing time after the treatment by destructive harvest. For both cell lines each treatment was carried out at least in triplication, and each experiment was performed at least twice.

[5] = tested on: human myelogenous erythroleukemic K562 cells; assay: Antiproliferative assay, K562 cells; type: cell-based; settings: for IC50: Homo sapiens, K562
Method: as §1
K562 cells in the late exponential phase of growth were seeded in 1 mL medium without FBS in 24-well plates to an initial density of about 20,000 cells mL^−1. Treatments with Br2PAMBPA in the range 1–200 µM were carried out 5 h after seeding. Cell growth was monitored at increasing time after the treatment by determining cell density on 50-μL aliquots with a Z1 Coulter Counter (Coulter Electronics), considering a dimensional range between 8 and 20 μm. MDA-MB-231 cells in the late exponential phase of growth (90% confluence) were washed with sterile PBS, incubated with sterile trypsin-EDTA solution (Sigma-Aldrich, Saint Louis, USA) for 2 min, resuspended in fresh DMEM medium and centrifuged at 1000 g at room temperature for 5 min. Pellets were resuspended in sterile PBS and spun again to remove any residue of trypsin. Cells were finally resuspended in DMEM medium without FBS, and seeded in 24-well plates in a final volume of 1 mL to an initial density of about 20,000 cells mL^−1. Treatments with Br2PAMBPA in the range 1–200 µM were carried out 5 h after seeding, and 2% FBS was added to each well 24 h thereafter. Cell growth was monitored at increasing time after the treatment by destructive harvest. For both cell lines each treatment was carried out at least in triplication, and each experiment was performed at least twice.

[6] = tested on: K562 cells; assay: Measurement of intracellular free proline and P5C levels, K562 cells; type: cell-based, human
Method: For proline and P5C quantification, treatments were carried out in T-25 flasks containing 10 mL medium. Cells were harvested by centrifugation at 1000 g for 5 min at RT. Each pellet was resuspended in 1.4 mL of sterile PBS and spun again to remove the medium. Washed pellets were transferred on ice, resuspended in a minimal volume of a 3% (w/v) solution of 5-sulfosalicylic acid and subjected to various freeze-thaw cycles to induce rupture of the phospholipid membrane. Cell debris were sedimented by centrifugation at 12,000 g for 5 min at RT, and the supernatants were analysed by the acid ninhydrin method of Williams and Frank, as described.

[7] = tested on: K562 cells; assay: Cell viability assay (Trypan Blue exclusion), K562 cells; type: cell-based, human; settings: modified RPMI medium not containing proline, 96 h after the inoculum
Method: Cell viability was assessed by the Trypan Blue exclusion test[38]. Stained cells were counted in a Bürker chamber. Viable and nonviable cells were recorded separately, and the results of three independent counts were pooled. Data were expressed as percent of alive cells.

[8] = tested on: breast cancer cell; settings: at 10 μM; cited from earlier work
[9] = IC50, NADH as the electron donor
[10] = IC50, NADPH as the electron donor
[11] = IC50 values, abstract, cofactor not specified
[12] = treated serum-free, 2% FBS added 24 h thereafter

SMILES: C#CCN(C)Cc1ccccc1 [Pargyline, N-methyl-N-(2-propynyl)benzylamine hydrochloride, reference compound]
- IC50 ([1]; listed as pargylin): 200 µM
- IC50 ([1]; listed as pargyline): 198 µM
- IC50 [2, 9]: > 10000 µM
- IC50 [2, 10]: 81 µM

SMILES: O=P(O)(O)C(Nc1cc(Cl)cc(Cl)c1)P(=O)(O)O [3,5-Cl2PAMBPA]
- IC50 [3]: 780 ± 30 µM
- IC50 [2, 9]: 0.78 ± 0.04 µM
- IC50 [2, 10]: 0.74 ± 0.06 µM
- IC50 [2, 11]: < 1 µM
- mechanism of inhibition against both P5C and NADPH ([2]; abstract): competitive type
- effect on the activity of human P5C reductase [2]: almost completely suppressed

SMILES: O=P(O)(O)C(Nc1cc(Br)cc(Br)c1)P(=O)(O)O [Br2PAMBPA, 3,5-dibromophenylaminomethylene-bisphosphonic acid]
- effect on cell proliferation in standard medium ([4]; DMEM with FBS, concentrations exceeding 50 μM, preliminary, data not shown): only mild effects
- concentrations progressively impairing growth ([4]; abstract): 10^−6 to 10^−4 M
- concentration from which cell growth rate and maximal cell density were progressively reduced [4, 12]: ≥ 5 µM
- concentration from which cell proliferation was completely abolished [4, 12]: ≥ 50 µM
- IC50 ([5]; modified RPMI medium not containing proline, read-out: concentration giving 50%-inhibition of growth): ~20 µM
- IC50 ([5]; unmodified RPMI medium containing 20 mg L^−1 (174 μM) Pro, read-out: concentration giving 50% inhibition of growth): ~7 µM
- concentrations progressively impairing growth ([5]; abstract): 10^−6 to 10^−4 M
- concentration range in which growth was inhibited ([5]; modified RPMI medium not containing proline): 2 to 200 µM
- levels of P5C ([6]; all cases, detection limit printed as > 1 nmol [10^6 cells]^−1): no detectable
- free proline concentration ([6]; control and treated K562 cells, with or without exogenous proline): 4–5 nmol (10^6 cells)^−1
- intracellular levels of free proline vs controls ([6]; modified RPMI medium not containing proline, 96 h after the inoculum): not significantly different than in controls
- reduction of free proline content with respect to viable cells ([6]; unmodified RPMI medium with 20 mg L^−1 Pro, at 50 µM): less than 50%
- free proline content with respect to viable cells ([6]; unmodified RPMI medium with 20 mg L^−1 Pro, up to 50 µM): no reduction was evident
- concentrations at which cell viability was significantly reduced [7]: exceeding 50 µM
- type of inhibition with NADH as the variable substrate [2]: mixed-type
- IC50 [2, 9]: 0.48 ± 0.03 µM
- IC50 [2, 10]: 0.39 ± 0.03 µM
- IC50 [2, 11]: < 1 µM
- Ki ([2]; NADH as variable substrate (Fig. 4D)): 0.66 ± 0.21 µM
- Ki ([2]; NADPH as variable substrate (Fig. 4C)): 0.48 ± 0.08 µM
- Ki ([2]; P5C as variable substrate, NADH as electron donor (Fig. 4B)): 0.12 ± 0.01 µM
- Ki ([2]; P5C as variable substrate, NADPH as electron donor (Fig. 4A)): 0.32 ± 0.02 µM
- mechanism of inhibition against both P5C and NADPH ([2]; abstract): competitive type
- effect on the activity of human P5C reductase [2]: almost completely suppressed
- type of inhibition against P5C ([2]; with NADPH or NADH as the electron donor): competitive type

SMILES: C#CCN(C)Cc1ccc(Br)cc1 [4-bromopargyline, reference compound]
- IC50 [1]: 9 µM
- reduction of breast cancer cell proliferation [8]: 30–40%
- IC50 [2, 9]: 234 ± 28 µM
- IC50 [2, 10]: 9 µM
- IC50 ([2]; NADPH as the electron donor, read-out: IC50): 8.7 ± 0.8 µM

— paper PMC8205077, “Phenyl-substituted aminomethylene-bisphosphonates inhibit human P5C reductase and show antiproliferative activity against proline-hyperproducing tumour cells” (Journal of Enzyme Inhibition and Medicinal Chemistry, 2021)
